Converted amounts (≈) assume the structure as drawn. Where two headings read alike, the source gives them in different places.
Tests used:
A. baumannii A390 [1] = test: MIC without and with sub-inhibitory polymyxin B (Example 4); format: cell-based, Acinetobacter baumannii; settings: +0.06 μg/ml PB, 2nd experiment
A. baumannii NCTC 13301 [2] = test: as above; format: cell-based, Acinetobacter baumannii; settings: A. baumannii NCTC 13301; +[…] PB; 2nd experiment
[3] = tested on: Acinetobacter sp. (H064200250); test: as above; format: cell-based; settings: for MIC: Acinetobacter
A. baumannii J2 = test: as above; format: cell-based, Acinetobacter baumannii; settings: for MIC without PB/MIC + PB: A. baumannii J2; for MIC: Acinetobacter baumannii
A. baumannii A473 [4] = test: as above; format: cell-based, Acinetobacter baumannii; settings: +0.06 μg/ml PB, 2nd experiment
A. baumannii A329 [5] = test: as above; format: cell-based, Acinetobacter baumannii; settings: +0.06 μg/ml PB, 2nd experiment
A. baumannii A472 [6] = test: as above; format: cell-based, Acinetobacter baumannii; settings: for MIC: Acinetobacter baumannii
A. baumannii A387 [7] = test: Preliminary MBC without and with sub-inhibitory polymyxin B (Example 4); format: cell-based, Acinetobacter baumannii; settings: Acinetobacter baumannii
A. baumannii A401 [8] = test: MIC without and with sub-inhibitory polymyxin B (Example 4); format: cell-based, Acinetobacter baumannii; settings: for MIC: Acinetobacter baumannii
A. baumannii A14 [9] = test: Preliminary MBC without and with sub-inhibitory polymyxin B (Example 4); format: cell-based, Acinetobacter baumannii; settings: 2nd experiment
Outline: (§1)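 Incubation 18-20 h, 37° C. MBC = lowest conc. with ~90% fewer colonies than positive control (single/no colonies).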

A. baumannii A390 [10] = test: as above; format: cell-based, Acinetobacter baumannii; settings: Acinetobacter baumannii, A390, A. baumannii A390, +0.06 μg/ml PB, 2nd experiment, read-out: MBC
Outline: as §1

A. baumannii A473 [11] = test: as above; format: cell-based, Acinetobacter baumannii; settings: Acinetobacter baumannii, A473, A. baumannii A473, +0.06 μg/ml PB, 2nd experiment, read-out: MBC
Outline: as §1

A. baumannii NCTC 13301 [12] = test: as above; format: cell-based, Acinetobacter baumannii; settings: Acinetobacter baumannii
Outline: as §1

A. baumannii A14 [13] = test: MIC without and with sub-inhibitory polymyxin B (Example 4); format: cell-based, Acinetobacter baumannii; settings: 1st experiment
A. baumannii A14 [14] = test: Preliminary MBC without and with sub-inhibitory polymyxin B (Example 4); format: cell-based, Acinetobacter baumannii; settings: A. baumannii A14; +0.06 μg/ml polymyxin B; preliminary MBC; 1st experiment
A. baumannii A329 [15] = test: as above; format: cell-based, Acinetobacter baumannii; settings: Acinetobacter baumannii, A329, A. baumannii A329, +0.06 μg/ml PB, 2nd experiment, read-out: MBC
A. baumannii A489 = test: as above; format: cell-based, Acinetobacter baumannii; settings: Acinetobacter baumannii, preliminary MBC
A. baumannii ATCC 19606 = test: MIC without and with sub-inhibitory polymyxin B (Example 4); format: cell-based, Acinetobacter baumannii; settings: for MIC without PB/MIC + PB: A. baumannii ATCC 19606; for MIC: Acinetobacter baumannii
A. baumannii A401 [16] = test: Preliminary MBC without and with sub-inhibitory polymyxin B (Example 4); format: cell-based, Acinetobacter baumannii; settings: Acinetobacter baumannii, A401, A baumannii A 401, +0.06 μg/ml PB, 2nd experiment, read-out: MBC
A. baumannii A472 [17] = test: as above; format: cell-based, Acinetobacter baumannii; settings: Acinetobacter baumannii
A. baumannii A14 [18] = test: MIC without and with sub-inhibitory polymyxin B (Example 4); format: cell-based, Acinetobacter baumannii; settings: 2nd experiment
A. baumannii NCTC 13301 [19] = test: as above; format: cell-based, Acinetobacter baumannii
A. baumannii A387 [20] = test: as above; format: cell-based, Acinetobacter baumannii; settings: for MIC without PB/MIC + PB: A. baumannii A387; for MIC: Acinetobacter baumannii
[21] = A. baumannii A14, +0.06 μg/ml PB
[22] = ratio, PB 0.06 μg/ml, 1st experiment

SMILES: Cc1c(-c2ccc(CN)cc2)c(F)cn2c(=O)c(C(=O)O)cc(C3CC3)c12 [Compound 6, 8-(4-aminomethyl-phenyl)-1-cyclopropyl-7-fluoro-9-methyl-4-oxo-quinolizine-3-carboxylic acid]
- MIC without PB/MIC + PB (A. baumannii A390 [1]; A. baumannii A390): 8
- MIC (A. baumannii A390 [1]; Acinetobacter baumannii, A390, A. baumannii A390, read-out: MIC): 2 µg/mL (≈ 5.46 µM)
- MIC without PB/MIC + PB (A. baumannii NCTC 13301 [2]): 16
- MIC [3]: 2 µg/mL (≈ 5.46 µM)
- MIC without PB/MIC + PB ([3]; Acinetobacter spp. H064200250 (OXA51), +[…] PB, 2nd experiment): 8
- MIC without PB/MIC + PB ([3]; Acinetobacter spp. H064200250, ratio, PB […], 1st experiment): 2
- MIC ([3]; read-out: MIC +[…] PB, Acinetobacter spp. H064200250, +[…] polymyxin B, 1st experiment): 4 µg/mL (≈ 10.9 µM)
- MIC without PB/MIC + PB (A. baumannii J2; +[…] PB, 2nd experiment): 32
- MIC without PB/MIC + PB (A. baumannii J2; ratio, PB […], 1st experiment): 16
- MIC (A. baumannii J2; J2): 0.25 µg/mL (≈ 0.682 µM)
- MIC (A. baumannii J2; J2, read-out: MIC +[…] PB, A. baumannii J2, +[…] polymyxin B, 1st experiment): 1 µg/mL (≈ 2.73 µM)
- MIC without PB/MIC + PB (A. baumannii A473 [4]; A. baumannii A473): 4
- MIC (A. baumannii A473 [4]; Acinetobacter baumannii, A473, A. baumannii A473, read-out: MIC): 2 µg/mL (≈ 5.46 µM)
- MIC without PB/MIC + PB (A. baumannii A329 [5]; A. baumannii A329): 2
- MIC (A. baumannii A329 [5]; Acinetobacter baumannii, A329, A. baumannii A329, read-out: MIC): 8 µg/mL (≈ 21.8 µM)
- MIC without PB/MIC + PB (A. baumannii A472 [6]; A. baumannii A472, ratio, PB […], 1st experiment): 16
- MIC (A. baumannii A472 [6]; A472): 1 µg/mL (≈ 2.73 µM)
- MIC (A. baumannii A472 [6]; A472, read-out: MIC +[…] PB, A. baumannii A472, +[…] polymyxin B, 1st experiment): 0.5 µg/mL (≈ 1.36 µM)
- MBC (A. baumannii A387 [7]; A387, A. baumannii A387, +0.06 μg/ml PB, 2nd experiment, read-out: MBC): 1 µg/mL (≈ 2.73 µM)
- MBC (A. baumannii A387 [7]; A387, read-out: MBC +0.06 μg/ml PB, A. baumannii A387, +0.06 μg/ml polymyxin B, 1st experiment): 0.5 µg/mL
- MIC without PB/MIC + PB (A. baumannii A401 [8]; A baumannii A 401, ratio, PB 0.06 μg/ml, 1st experiment): 4
- MIC (A. baumannii A401 [8]; A401, A baumannii A 401, +0.06 μg/ml PB, 2nd experiment, read-out: MIC): 4 µg/mL (≈ 10.9 µM)
- MIC (A. baumannii A401 [8]; A401, read-out: MIC +0.06 μg/ml PB, A baumannii A 401, +0.06 μg/ml polymyxin B, 1st experiment): 4 µg/mL
- MBC (A. baumannii A14 [9]; [21]): 8 µg/mL (≈ 21.8 µM)
- MBC (A. baumannii A14 [9]; Acinetobacter baumannii, A14, A. baumannii A14, without PB, read-out: MBC): 16 µg/mL (≈ 43.7 µM)
- MBC (A. baumannii A390 [10]): 2 µg/mL (≈ 5.46 µM)
- MBC (A. baumannii A473 [11]): 2 µg/mL (≈ 5.46 µM)
- MBC (A. baumannii NCTC 13301 [12]; NCTC13301): 2 µg/mL (≈ 5.46 µM)
- MBC (A. baumannii NCTC 13301 [12]; NCTC13301, read-out: MBC +[…] PB): 4 µg/mL (≈ 10.9 µM)
- MIC +0.06 μg/ml PB (A. baumannii A14 [13]; +0.06 μg/ml polymyxin B): 8 µg/mL
- MIC without PB/MIC + PB (A. baumannii A14 [13]; ratio, PB 0.06 μg/ml): 4
- MBC +0.06 μg/ml PB (A. baumannii A14 [14]): 8 µg/mL
- MBC (A. baumannii A329 [15]): 8 µg/mL (≈ 21.8 µM)
- MBC (A. baumannii A489; A489, A. baumannii A489, +[…] PB, 2nd experiment, read-out: MBC): 0.5 µg/mL (≈ 1.36 µM)
- MBC (A. baumannii A489; A489, read-out: MBC +[…] PB, A. baumannii A489, +[…] polymyxin B, 1st experiment): 1 µg/mL (≈ 2.73 µM)
- MIC without PB/MIC + PB (A. baumannii ATCC 19606; +0.06 μg/ml PB, 2nd experiment): 4
- MIC without PB/MIC + PB (A. baumannii ATCC 19606; [22]): 8
- MIC (A. baumannii ATCC 19606; ATCC19606, A. baumannii ATCC 19606, +0.06 μg/ml PB, 2nd experiment, read-out: MIC): 0.06 µg/mL (≈ 0.164 µM)
- MIC (A. baumannii ATCC 19606; ATCC19606, read-out: MIC +0.06 μg/ml PB, A. baumannii ATCC 19606, +0.06 μg/ml polymyxin B, 1st experiment): 0.06 µg/mL
- MBC (A. baumannii A401 [16]): 32 µg/mL (≈ 87.3 µM)
- MBC (A. baumannii A472 [17]; A472): 1 µg/mL (≈ 2.73 µM)
- MBC (A. baumannii A472 [17]; A472, read-out: MBC +[…] PB, A. baumannii A472, +[…] polymyxin B, preliminary MBC, 1st experiment): 0.5 µg/mL (≈ 1.36 µM)
- MIC (A. baumannii A14 [18]; [21]): 4 µg/mL (≈ 10.9 µM)
- MIC without PB/MIC + PB (A. baumannii A14 [18]; [21]): 4
- MIC (A. baumannii A14 [18]; Acinetobacter baumannii, A14, A. baumannii A14, without PB, read-out: MIC): 16 µg/mL (≈ 43.7 µM)
- MIC without PB/MIC + PB (A. baumannii NCTC 13301 [19]; A. baumannii NCTC 13301, ratio, PB […], 1st experiment): 32
- MIC (A. baumannii NCTC 13301 [19]; Acinetobacter baumannii, NCTC13301, read-out: MIC +[…] PB): 1 µg/mL (≈ 2.73 µM)
- MIC without PB/MIC + PB (A. baumannii A387 [20]; +0.06 μg/ml PB, 2nd experiment): 4
- MIC without PB/MIC + PB (A. baumannii A387 [20]; [22]): 8
- MIC (A. baumannii A387 [20]; A387, A. baumannii A387, +0.06 μg/ml PB, 2nd experiment, read-out: MIC): 1 µg/mL (≈ 2.73 µM)
- MIC (A. baumannii A387 [20]; A387, read-out: MIC +0.06 μg/ml PB, A. baumannii A387, +0.06 μg/ml polymyxin B, 1st experiment): 0.5 µg/mL

Reference: patent US20190105367A1, “ANTIMICROBIAL 4-OXOQUINOLIZINES” (Emergent Product Development Gaithersburg Inc., priority 2011, published 2019)
